The structures appear in SMILES notation.

T1 sequence (O75762 whole entry): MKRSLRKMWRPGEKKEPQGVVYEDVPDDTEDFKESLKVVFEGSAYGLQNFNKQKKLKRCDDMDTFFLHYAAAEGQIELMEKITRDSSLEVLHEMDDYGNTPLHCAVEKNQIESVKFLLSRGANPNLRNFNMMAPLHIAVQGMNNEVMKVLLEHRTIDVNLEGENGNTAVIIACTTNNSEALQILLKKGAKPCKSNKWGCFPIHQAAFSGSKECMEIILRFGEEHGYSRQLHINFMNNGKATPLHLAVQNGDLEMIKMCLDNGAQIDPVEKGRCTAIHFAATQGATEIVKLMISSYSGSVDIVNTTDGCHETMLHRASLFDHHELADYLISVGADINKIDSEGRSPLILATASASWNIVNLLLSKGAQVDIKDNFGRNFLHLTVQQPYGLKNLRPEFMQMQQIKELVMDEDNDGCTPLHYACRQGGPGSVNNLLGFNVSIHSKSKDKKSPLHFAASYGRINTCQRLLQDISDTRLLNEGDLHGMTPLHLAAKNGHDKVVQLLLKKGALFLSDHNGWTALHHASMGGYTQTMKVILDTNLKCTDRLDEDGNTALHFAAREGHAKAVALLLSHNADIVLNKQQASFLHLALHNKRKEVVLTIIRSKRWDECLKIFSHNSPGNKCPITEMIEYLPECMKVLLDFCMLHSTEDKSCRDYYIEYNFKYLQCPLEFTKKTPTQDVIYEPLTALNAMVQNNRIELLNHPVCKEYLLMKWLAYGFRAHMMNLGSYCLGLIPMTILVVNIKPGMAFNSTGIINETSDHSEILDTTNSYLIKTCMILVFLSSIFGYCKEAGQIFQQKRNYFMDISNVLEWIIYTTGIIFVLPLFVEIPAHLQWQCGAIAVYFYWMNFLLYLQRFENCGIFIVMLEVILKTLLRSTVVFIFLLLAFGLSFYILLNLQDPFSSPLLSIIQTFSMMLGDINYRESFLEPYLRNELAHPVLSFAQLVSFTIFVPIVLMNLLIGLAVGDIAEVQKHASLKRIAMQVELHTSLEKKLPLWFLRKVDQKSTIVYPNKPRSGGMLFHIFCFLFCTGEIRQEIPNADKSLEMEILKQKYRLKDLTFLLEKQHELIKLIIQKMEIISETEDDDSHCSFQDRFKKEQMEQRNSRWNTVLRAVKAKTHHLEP

The test addresses T1, human TRPA1 (Homo sapiens, UniProt O75762).
T1 construct: expressed in transfected cells; host or cells: CHO cells
Description: TRPA1 FLIPR Tetra calcium influx assay in CHO cells (block of cinnamaldehyde-induced calcium influx). It is filed as cell-based. The following applies: Table 2; CHO cells expressing TRPA1; agonist cinnamaldehyde 75 uM; 20 min compound incubation; Hill coefficient fixed to 1.5; read-out: hTRPA1 CHO Ca2+ AUC EVO (IC50). The method in brief:
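IC50s were derived from a Hill fit with n fixed at 1.5, using inhibition of FLIPR Tetra calcium signals in dye-loaded TRPA1-CHO cells. Cells sat with compound 20 min at room temperature in HBSS with 20 mM HEPES (pH 7.4) and 0.02% BSA, then were challenged with cinnamaldehyde near EC80: 75 µM human, 45 µM rat.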
In the case of `C[C@H]1[C@H](F)C[C@@H](C(=O)NCc2cc(-c3cnc(C(F)(F)F)c(C#N)c3)ncc2F)N1S(=O)(=O)c1ccc(F)cc1` [Example 134, (2S,4R,5S)-N-[[2-[5-cyano-6-(trifluoromethyl)-3-pyridyl]-5-fluoro-4-pyridyl]methyl]-4-fluoro-1-(4-fluorophenyl)sulfonyl-5-methyl-pyrrolidine-2-carboxamide], the IC50 – broadly, the point on the concentration scale where inhibition reaches its midpoint – stood at 32.6 nM.
As for `C[C@H]1[C@H](F)C[C@@H](C(=O)NCc2nc(-c3cnc(C(F)(F)F)nc3)ncc2C(F)(F)F)N1S(=O)(=O)c1ccc(F)cc1` [Example 135, (2S,4R,5S)-4-fluoro-1-(4-fluorophenyl)sulfonyl-5-methyl-N-[[5-(trifluoromethyl)-2-[2-(trifluoromethyl)pyrimidin-5-yl]pyrimidin-4-yl]methyl]pyrrolidine-2-carboxamide], the IC50 was 19.3 nM.
With `C[C@H]1[C@H](F)C[C@@H](C(=O)NCc2cc(-c3cnc(C(F)(F)F)nc3)ncc2CC(F)(F)F)N1S(=O)(=O)c1ccc(F)cc1` [Example 136, (2S,4R,5S)-4-fluoro-1-(4-fluorophenyl)sulfonyl-5-methyl-N-[[5-(2,2,2-trifluoroethyl)-2-[2-(trifluoromethyl)pyrimidin-5-yl]-4-pyridyl]methyl]pyrrolidine-2-carboxamide], the IC50 was 8.11 nM.
The result for `C[C@H]1[C@H](F)C[C@@H](C(=O)NCc2cc(-c3cnc(C(F)(F)F)nc3)nc(C3CC3)c2C(F)(F)F)N1S(=O)(=O)c1ccc(F)cc1` [Example 137, (2S,4R,5S)-N-[[2-cyclopropyl-3-(trifluoromethyl)-6-[2-(trifluoromethyl)pyrimidin-5-yl]-4-pyridyl]methyl]-4-fluoro-1-(4-fluorophenyl)sulfonyl-5-methyl-pyrrolidine-2-carboxamide] reads 0.7 nM; that for `C[C@H]1[C@H](F)C[C@@H](C(=O)NCc2cc(-c3cnc(C(F)(F)F)nc3)ncc2CF)N1S(=O)(=O)c1ccc(F)cc1` [Example 138], 11.7 nM.
The result for `C[C@H]1[C@H](F)C[C@@H](C(=O)NCc2cc(-c3ccc(C(F)(F)F)cc3)ncc2OC(F)(F)F)N1S(=O)(=O)c1ccc(F)cc1` [Example 139, (2S,4R,5S)-4-fluoro-1-(4-fluorophenyl)sulfonyl-5-methyl-N-[[5-(trifluoromethoxy)-2-[4-(trifluoromethyl)phenyl]-4-pyridyl]methyl]pyrrolidine-2-carboxamide] reads 2.77 nM; that for `C[C@H]1[C@H](F)C[C@@H](C(=O)NCc2cc([C@H]3C[C@H](OC(F)(F)F)C3)ncc2F)N1S(=O)(=O)c1ccc(F)cc1` [Example 140, (2S,4R,5S)-4-fluoro-1-(4-fluorophenyl)sulfonyl-N-[[5-fluoro-2-[3-(trifluoromethoxy)cyclobutyl]-4-pyridyl]methyl]-5-methyl-pyrrolidine-2-carboxamide], 3.56 nM; that for `C[C@H]1[C@H](F)C[C@@H](C(=O)NCc2cc(-c3cnc(C4CC4)nc3)ncc2F)N1S(=O)(=O)c1ccc(F)cc1` [Example 141, (2S,4R,5S)-N-[[2-(2-cyclopropylpyrimidin-5-yl)-5-fluoro-4-pyridyl]methyl]-4-fluoro-1-(4-fluorophenyl)sulfonyl-5-methyl-pyrrolidine-2-carboxamide], 20.4 nM.
`C[C@H]1[C@H](F)C[C@@H](C(=O)NCc2cc(-c3cnc(C(F)(F)F)nc3)c(C#N)c(C3CC3)n2)N1S(=O)(=O)c1ccc(F)cc1` [Example 142, (2S,4R,5S)—N-([5-cyano-6-cyclopropyl-4-[2-(trifluoromethyl)pyrimidin-5-yl]pyridin-2-yl]methyl)-4-fluoro-1-[(4-fluorobenzene)sulfonyl]-5-methylpyrrolidine-2-carboxamide]: the IC50 was determined as 12 nM.
The result for `C[C@H]1[C@H](F)C[C@@H](C(=O)NCc2cc(OCCC3(C(F)(F)F)CC3)nc(C3CC3)n2)N1S(=O)(=O)c1ccc(F)cc1` [Example 143, (2S,4R,5S)-N-[[2-cyclopropyl-6-[2-[1-(trifluoromethyl)cyclopropyl]ethoxy]pyrimidin-4-yl]methyl]-4-fluoro-1-(4-fluorophenyl)sulfonyl-5-methyl-pyrrolidine-2-carboxamide] reads 22.4 nM; that for `C[C@H]1[C@H](F)C[C@@H](C(=O)NCc2cc(-c3cnc(C(F)(F)F)c(F)c3)c(F)cn2)N1S(=O)(=O)c1ccc(F)cc1` [Example 144, (2S,4R,5S)-4-fluoro-N-[[5-fluoro-4-[5-fluoro-6-(trifluoromethyl)-3-pyridyl]-2-pyridyl]methyl]-1-(4-fluorophenyl)sulfonyl-5-methyl-pyrrolidine-2-carboxamide], 17 nM; that for `C[C@H]1[C@H](F)C[C@@H](C(=O)NCc2cc(N3CC[C@H](OC(F)(F)F)C(F)(F)C3)ncc2F)N1S(=O)(=O)c1ccc(F)cc1` [Example 145, (2S,4R,5S)-N-[[2-[(4S)-3,3-difluoro-4-(trifluoromethoxy)-1-piperidyl]-5-fluoro-4-pyridyl]methyl]-4-fluoro-1-(4-fluorophenyl)sulfonyl-5-methyl-pyrrolidine-2-carboxamide], 8.36 nM.
Take `C[C@H]1[C@H](F)C[C@@H](C(=O)NCc2cc(-c3cnc(C(F)(F)F)nc3)c(OC(F)F)cn2)N1S(=O)(=O)c1ccc(F)cc1` [Example 146, (2S,4R,5S)-N-[[5-(difluoromethoxy)-4-[2-(trifluoromethyl)pyrimidin-5-yl]-2-pyridyl]methyl]-4-fluoro-1-(4-fluorophenyl)sulfonyl-5-methyl-pyrrolidine-2-carboxamide]: the IC50 turned out to be 35 nM.
The result for `C[C@H]1[C@H](F)C[C@@H](C(=O)NCc2cn([C@H]3CC[C@H](C(F)(F)F)CC3)nc2C(F)(F)F)N1S(=O)(=O)c1ccc(F)cc1` [Example 147, (2S,4R,5S)-4-fluoro-1-(4-fluorophenyl)sulfonyl-5-methyl-N-[[3-(trifluoromethyl)-1-[4-(trifluoromethyl)cyclohexyl]pyrazol-4-yl]methyl]pyrrolidine-2-carboxamide] reads 24.5 nM; that for `C[C@H]1[C@H](F)C[C@@H](C(=O)NCc2cn(-c3cnc(C(F)(F)F)s3)nc2Cl)N1S(=O)(=O)c1ccc(F)cc1` [Example 148, (4R,5S)-N-[[3-chloro-1-[2-(trifluoromethyl)thiazol-5-yl]pyrazol-4-yl]methyl]-4-fluoro-1-(4-fluorophenyl)sulfonyl-5-methyl-pyrrolidine-2-carboxamide], 7.64 nM.
The result for `O=C(NCc1cc(-c2cnc(C(F)(F)F)nc2)ncc1C(F)(F)F)[C@@H]1[C@H]2C[C@H]2CN1S(=O)(=O)c1ccc(F)cc1` [Example 149, (1S,2S,5R)-3-(4-fluorophenyl)sulfonyl-N-[[5-(trifluoromethyl)-2-[2-(trifluoromethyl)pyrimidin-5-yl]-4-pyridyl]methyl]-3-azabicyclo[3.1.0]hexane-2-carboxamide] reads 0.756 nM; that for `O=C(NCc1cc(-c2cnc(C(F)(F)F)nc2)ncc1C(F)F)[C@@H]1[C@H]2C[C@H]2CN1S(=O)(=O)c1ccc(F)cc1` [Example 150, (1R,4S,5S)-N-[[5-(difluoromethyl)-2-[2-(trifluoromethyl)pyrimidin-5-yl]-4-pyridyl]methyl]-3-(4-fluorophenyl)sulfonyl-3-azabicyclo[3.1.0]hexane-4-carboxamide], 5.72 nM.
The result for `O=C(NCc1cc(-c2cnc(C(F)(F)F)nc2)nc(C2CC2)n1)[C@@H]1[C@H]2C[C@H]2CN1S(=O)(=O)c1ccc(F)cc1` [Example 151, (1S,2S,5R)-N-[[2-cyclopropyl-6-[2-(trifluoromethyl)pyrimidin-5-yl]pyrimidin-4-yl]-methyl]-3-(4-fluorophenyl)sulfonyl-3-azabicyclo[3.1.0]hexane-2-carboxamide] reads 1 nM.
For the molecule `C[C@H]1[C@H](F)C[C@@H](C(=O)NCc2cc(-c3cnc(C(F)(F)F)nc3)cnc2C(F)(F)F)N1S(=O)(=O)c1ccc(F)cc1` [Example 152, (2S,4R,5S)-4-fluoro-1-(4-fluorophenyl)sulfonyl-5-methyl-N-[[2-(trifluoromethyl)-5-[2-(trifluoromethyl)pyrimidin-5-yl]-3-pyridyl]methyl]pyrrolidine-2-carboxamide], the IC50 turned out to be 3.03 nM.
In the case of `C[C@H]1[C@H](F)C[C@@H](C(=O)NCc2cc(-c3cnc(C(F)(F)F)nc3)ncc2C(F)(F)F)N1S(=O)(=O)c1cc2cc(F)ccc2o1` [Example 153, (2S,4R,5S)-4-fluoro-1-(5-fluorobenzofuran-2-yl)sulfonyl-5-methyl-N-[[5-(trifluoromethyl)-2-[2-(trifluoromethyl)pyrimidin-5-yl]-4-pyridyl]methyl]pyrrolidine-2-carboxamide], the IC50 was determined as 0.229 nM.
The result for `C[C@H]1[C@H](F)C[C@@H](C(=O)NCc2cc(-c3cnc(C(F)(F)F)nc3)ncc2F)N1S(=O)(=O)c1cc2cc(F)ccc2o1` [Example 154, (2S,4R,5S)-4-fluoro-1-(5-fluorobenzofuran-2-yl)sulfonyl-N-[[5-fluoro-2-[2-(trifluoromethyl)pyrimidin-5-yl]-4-pyridyl]methyl]-5-methyl-pyrrolidine-2-carboxamide] reads 0.89 nM; that for `C[C@@]1(F)C[C@@H](C(=O)NCc2cc(-c3cnc(C(F)(F)F)nc3)ncc2C(F)(F)F)N(S(=O)(=O)c2ccc(F)cc2)C1` [Example 155, (2S,4R)-4-fluoro-1-(4-fluorophenyl)sulfonyl-4-methyl-N-[[5-(trifluoromethyl)-2-[2-(trifluoromethyl)pyrimidin-5-yl]-4-pyridyl]methyl]pyrrolidine-2-carboxamide], 4.24 nM; that for `C[C@@]1(F)C[C@@H](C(=O)NCc2cc(-c3cnc(C(F)(F)F)nc3)ncc2C(F)(F)F)N(S(=O)(=O)c2cc3cc(F)ccc3o2)C1` [Example 156, (2S,4R)-4-fluoro-1-(5-fluorobenzofuran-2-yl)sulfonyl-4-methyl-N-[[5-(trifluoromethyl)-2-[2-(trifluoromethyl)pyrimidin-5-yl]-4-pyridyl]methyl]pyrrolidine-2-carboxamide], 1.93 nM.

The values are drawn from US10179782B2, “Substituted sulfonamide compounds” (Genentech, Inc., priority 2016, dated 2019).
